Reference: the CheMixHub viscosity set

Experiment: xn = mol fraction of the nth substance listed

CC(C)(C)O + CC(C)O
303.2 K, 101.33 kPa
Conditions | viscosity [mPa·s]
x2 = 0.05 | 3.297
x2 = 0.1 | 3.237
x2 = 0.15 | 3.172
x2 = 0.2 | 3.101
x2 = 0.3 | 2.931
x2 = 0.4 | 2.75
x2 = 0.5 | 2.572
x2 = 0.6 | 2.396
x2 = 0.7 | 2.224
x2 = 0.8 | 2.059
x2 = 0.85 | 1.979
x2 = 0.9 | 1.9
x2 = 0.95 | 1.831

CCNCC + CC(C)O
viscosity [mPa·s], 100 kPa
Conditions | 293.15 K | 298.15 K | 303.15 K | 308.15 K | 313.15 K | 318.15 K | 323.15 K
x1 = 0.0215 | 2.3 | 1.99 | 1.72 | 1.49 | 1.31 | 1.15 | 1.01
x1 = 0.0807 | 1.99 | 1.74 | 1.51 | 1.31 | 1.152 | 1.02 | 0.9
x1 = 0.1595 | 1.63 | 1.44 | 1.256 | 1.09 | 0.97 | 0.86 | 0.78
x1 = 0.2401 | 1.33 | 1.187 | 1.05 | 0.924 | 0.82 | 0.732 | 0.67
x1 = 0.3491 | 1.02 | 0.91 | 0.806 | 0.72 | 0.64 | 0.58 | 0.54
x1 = 0.4399 | 0.84 | 0.75 | 0.671 | 0.598 | 0.54 | 0.491 | 0.46
x1 = 0.5598 | 0.65 | 0.58 | 0.527 | 0.48 | 0.435 | 0.396 | 0.37
x1 = 0.6501 | 0.551 | 0.5 | 0.455 | 0.416 | 0.376 | 0.345 | 0.32
x1 = 0.7395 | 0.48 | 0.43 | 0.39 | 0.36 | 0.33 | 0.304 | 0.283
x1 = 0.8496 | 0.41 | 0.376 | 0.343 | 0.319 | 0.296 | 0.271 | 0.251
x1 = 0.94 | 0.36 | 0.336 | 0.315 | 0.293 | 0.274 | 0.257 | 0.243
x2 = 0.0137 | 0.33 | 0.314 | 0.298 | 0.282 | 0.267 | 0.251 | 0.238

COCCOCCOCCO + CC(C)O
viscosity [mPa·s], 101 kPa
Conditions | x1 = 0.0079 | x1 = 0.0146 | x1 = 0.0314 | x1 = 0.0413 | x1 = 0.0581 | x1 = 0.0775 | x1 = 0.1025
298.15 K | 2.089 | 2.09 | 2.099 | 2.116 | 2.128 | 2.159 | 2.207
308.15 K | 1.568 | 1.574 | 1.594 | 1.608 | 1.628 | 1.683 | 1.706
318.15 K | 1.202 | 1.21 | 1.235 | 1.252 | 1.266 | 1.3 | 1.343

CC(C)(C)O + CCC(C)=O
viscosity [mPa·s]
Conditions | 298.15 K | 303.15 K | 308.15 K | 313.15 K | 318.15 K
101 kPa, x1 = 0.0925 | 0.3917 | 0.3748 | 0.3599 | – | –
101 kPa, x1 = 0.1893 | 0.4117 | 0.3946 | 0.3737 | – | –
101 kPa, x1 = 0.2885 | 0.4407 | 0.4203 | 0.3964 | – | –
101 kPa, x1 = 0.3835 | 0.4875 | 0.452 | 0.422 | – | –
101 kPa, x1 = 0.4877 | 0.5818 | 0.5397 | 0.4915 | – | –
101 kPa, x1 = 0.5862 | 0.7295 | 0.6627 | 0.602 | – | –
101 kPa, x1 = 0.6907 | 0.9865 | 0.8797 | 0.7882 | – | –
101 kPa, x1 = 0.7895 | 1.424 | 1.237 | 1.085 | – | –
101 kPa, x1 = 0.8935 | 2.253 | 1.879 | 1.588 | – | –
101.3 kPa, x1 = 0.0985 | 0.423 | 0.401 | 0.38 | 0.361 | 0.343
101.3 kPa, x1 = 0.1968 | 0.464 | 0.438 | 0.413 | 0.391 | 0.37
101.3 kPa, x1 = 0.2962 | 0.52 | 0.487 | 0.457 | 0.429 | 0.405
101.3 kPa, x1 = 0.3941 | 0.595 | 0.553 | 0.514 | 0.48 | 0.449
101.3 kPa, x1 = 0.4949 | 0.705 | 0.647 | 0.596 | 0.551 | 0.511
101.3 kPa, x1 = 0.5928 | 0.859 | 0.779 | 0.708 | 0.647 | 0.593
101.3 kPa, x1 = 0.695 | 1.116 | 0.99 | 0.884 | 0.793 | 0.716
101.3 kPa, x1 = 0.8003 | 1.577 | 1.357 | 1.178 | 1.031 | 0.909
101.3 kPa, x1 = 0.9037 | 2.474 | 2.029 | 1.687 | 1.421 | 1.212

CCNCC + CCC(C)=O
298.15 K, 101 kPa
Conditions | viscosity [mPa·s]
x2 = 0.1013 | 0.273
x2 = 0.2023 | 0.279
x2 = 0.303 | 0.283
x2 = 0.4034 | 0.287
x2 = 0.5035 | 0.293
x2 = 0.6034 | 0.3
x2 = 0.703 | 0.313
x2 = 0.8023 | 0.331
x2 = 0.9013 | 0.353

CCNCC + CCC(C)O
viscosity [mPa·s], 100 kPa
Conditions | 293.15 K | 298.15 K | 303.15 K | 308.15 K | 313.15 K | 318.15 K | 323.15 K
x1 = 0.0221 | 3.49 | 2.91 | 2.42 | 2.04 | 1.73 | 1.49 | 1.28
x1 = 0.081 | 3.02 | 2.54 | 2.12 | 1.82 | 1.55 | 1.34 | 1.18
x1 = 0.1601 | 2.49 | 2.11 | 1.8 | 1.56 | 1.33 | 1.16 | 1.049
x1 = 0.24 | 2.04 | 1.75 | 1.51 | 1.31 | 1.15 | 1.01 | 0.93
x1 = 0.3494 | 1.602 | 1.37 | 1.17 | 1.033 | 0.92 | 0.83 | 0.771
x1 = 0.4395 | 1.32 | 1.13 | 0.98 | 0.867 | 0.78 | 0.71 | 0.66
x1 = 0.5602 | 1.032 | 0.868 | 0.754 | 0.68 | 0.62 | 0.574 | 0.533
x1 = 0.65 | 0.827 | 0.712 | 0.628 | 0.57 | 0.528 | 0.489 | 0.459
x1 = 0.74 | 0.662 | 0.58 | 0.515 | 0.48 | 0.443 | 0.416 | 0.389
x1 = 0.8503 | 0.496 | 0.447 | 0.41 | 0.38 | 0.359 | 0.337 | 0.318
x1 = 0.94 | 0.384 | 0.356 | 0.335 | 0.309 | 0.298 | 0.284 | 0.268
x2 = 0.0129 | 0.336 | 0.317 | 0.3 | 0.284 | 0.27 | 0.257 | 0.244

COCCOCCOCCO + CCC(C)O
viscosity [mPa·s], 101 kPa
Conditions | x1 = 0.0039 | x1 = 0.0079 | x1 = 0.0151 | x1 = 0.0318 | x1 = 0.0511 | x1 = 0.08 | x1 = 0.1038
298.15 K | 3.101 | 3.074 | 3.046 | 2.988 | 2.947 | 2.893 | 2.942
308.15 K | 2.163 | 2.161 | 2.148 | 2.133 | 2.132 | 2.128 | 2.186
318.15 K | 1.565 | 1.562 | 1.564 | 1.569 | 1.577 | 1.611 | 1.674

Nc1ccccc1 + CCC(C)O
303 K, 101.33 kPa
Conditions | viscosity [mPa·s]
x1 = 0.1 | 2.052
x1 = 0.2 | 1.978
x1 = 0.3 | 1.954
x1 = 0.4 | 1.944
x1 = 0.5 | 2.076
x1 = 0.6 | 2.156
x1 = 0.8 | 2.504
x1 = 0.9 | 2.835

CCNCC + CCCC(C)O
viscosity [mPa·s], 100 kPa
Conditions | 293.15 K | 298.15 K | 303.15 K | 308.15 K | 313.15 K | 318.15 K | 323.15 K
x1 = 0.0218 | 3.75 | 3.12 | 2.6 | 2.18 | 1.85 | 1.59 | 1.37
x1 = 0.081 | 3.2 | 2.7 | 2.28 | 1.92 | 1.66 | 1.44 | 1.25
x1 = 0.16 | 2.57 | 2.207 | 1.9 | 1.62 | 1.42 | 1.25 | 1.1
x1 = 0.2399 | 2.04 | 1.78 | 1.555 | 1.35 | 1.204 | 1.07 | 0.96
x1 = 0.3499 | 1.5 | 1.33 | 1.18 | 1.05 | 0.945 | 0.858 | 0.78
x1 = 0.44 | 1.16 | 1.04 | 0.94 | 0.85 | 0.778 | 0.71 | 0.65
x1 = 0.56 | 0.84 | 0.76 | 0.7 | 0.644 | 0.592 | 0.544 | 0.494
x1 = 0.6501 | 0.68 | 0.629 | 0.577 | 0.53 | 0.489 | 0.446 | 0.41
x1 = 0.74 | 0.552 | 0.506 | 0.466 | 0.435 | 0.4 | 0.367 | 0.34
x1 = 0.8497 | 0.45 | 0.416 | 0.387 | 0.36 | 0.335 | 0.311 | 0.285
x1 = 0.9397 | 0.368 | 0.346 | 0.325 | 0.304 | 0.285 | 0.268 | 0.25
x2 = 0.0189 | 0.332 | 0.316 | 0.3 | 0.283 | 0.268 | 0.254 | 0.24

COCCOCCOCCO + CCCC(C)O
viscosity [mPa·s], 101 kPa
Conditions | x1 = 0.0047 | x1 = 0.0177 | x1 = 0.0299 | x1 = 0.0546 | x1 = 0.0827 | x1 = 0.1089
298.15 K | 3.349 | 3.306 | 3.258 | 3.191 | 3.143 | 3.122
308.15 K | 2.319 | 2.316 | 2.3 | 2.288 | 2.285 | 2.295
318.15 K | 1.672 | 1.676 | 1.684 | 1.695 | 1.712 | 1.732

CC(C)C=O + CCCC=O
viscosity [mPa·s], 100 kPa
Conditions | 293.5 K | 293.51 K | 317.08 K | 318.11 K
x1 = 0.12 | – | 23.21 | 17.25 | –
x1 = 0.2 | 2.307 | – | – | 1.698

Cc1ccc(NC(=O)NCCCCCCCCCCC(C)C)cc1NC(=O)NCCCCCCCCCCC(C)C + CCCCC
Conditions | viscosity [mPa·s]
293.15 K, 100 kPa, x1 = 0.0001 | 204
